Laboratory results taken from patent US20020150553A1, “Compositions containing C-terminal polypeptides of angiogenic chemokines and methods of use” (The Regents of the University of California, priority 1999, published 2002).

Experiments:
[1] = system: blood vessels of the chorioallantoic membrane (CAM); experiment: Angiogenesis assays in the CAM (chorioallantoic membrane); type: in vivo, chicken; details: for percent of blood vessels oriented towards the pellet minus percent directed away: cCAF peptide 100-300 ng; for angiogenesis / oriented blood vessel growth after preincubation with antibody: peptide (100-300 ng) preincubated with excess of an antibody prepared against it; for new sprouting of blood vessels of the CAM: 4 days after application
Protocol: (§1) These assays were done as previously described [Martins-Green et al. (1998)]. Briefly, fertilized chicken eggs were incubated for 3 days at 37° C., at which time 2 ml of albumin were withdrawn to drop the embryo and CAM away from the shelf. Windows were made on day 4, the holes covered with transparent tape, and the eggs placed back in the incubator until day 10 when the experiment was performed. Pellets were prepared by mixing the appropriate amount of reduced and non-reduced 9E3 peptides or bFGF with 1% methylcellulose (1:1) and then delivering 5-μl droplets on a bacterial dish and allowing them to dry in a sterile hood for approximately 30 min. This procedure generated small disc-shaped pellets 2 mm in diameter and ˜0.1 mm thick. These pellets containing various concentrations of protein were placed, under sterile conditions, between two large blood vessels of the 10-day-old CAMs. Two or four days later, the pellets and the surrounding area of the CAM were fixed in situ; the CAMs were then removed and examined for the presence of chemotaxis and/or angiogenesis. Angiogenesis was quantified by analysis of blood vessel orientation and/or increase in the number of vessels and sprouts (see below). Negative control pellets were prepared in the same way with 0.5% methylcellulose alone or with the same concentration of BSA as used for the cCAF peptide or with peptide preincubated with an antibody made against it [Martins-Green et al. (1992)].
As previously described, 10-day-old CAMs were used because at this stage of development the CAM close to the embryo is fully developed; the blood vessels in this area have stopped growing and assumed a tree-like pattern with short stubby tertiary branches (FIG. 2A). […] [Martins-Green et al. (1997); Vu M T, Smith C F, Burger P C, Klintworth G K (1985) Methods in laboratory investigation. An evaluation of methods to quantitate the chick chorioallantoic membrane assay in angiogenesis. Lab Invest 4:499-508; Klagsbrun M, D'Amore P A (1991) Regulators or angiogenesis. Annu Rev Physiol 53:217-239; Cockerill G W, Gamble J R, Vadas M A (1995) Angiogenesis: models and modulators. Interntl Rev Cytol 1.59:113-160; and Swerlick R A (1995) Angiogenesis. J Dermatol 22:845-852.]
The CAMs were then analyzed by making measurements of the orientation of the blood vessels relative to the pellet. For each concentration of the C-terminal peptide and for all controls, 6-10 CAMs were measured. Vessels were classified (FIG. 2A) as primary (largest), secondary (branches of primary vessels) and tertiary (all other vessels). […] The measurements were made without prior knowledge of which specimens were controls and which were cCAF. For secondary vessels; we looked for deviations in their orientations. For tertiary vessels, each vessel was approximated by a vector pointing in its growth direction. Each vector was resolved into components directed radially and tangentially with respect to the pellet; the definition of toward or away was determined from the radial component of the vector. For graphical presentation of the data, the percent of blood vessels growing toward the pellet was determined for secondary and tertiary vessels (FIG. 5).
Quantification of blood vessel sprouting was performed as described previously [Martins-Green et al. (1998)]. Briefly, a sprout was defined as a very small blood vessel having a length of one third or less that of the tertiary branches of the normal CAM. Sprouts thus defined were counted in the areas of the CAMs with pellets containing 1000 ng of C-terminal peptide. For CAMs treated with 1000 ng/pellet of C-terminal peptide, we counted sprouts on 90 mm total of 21 individual blood vessel segments from 6 different CAMs. For the BSA controls we counted sprouts on 123 mm of 24 segments of blood vessels.

[2] = system: blood vessels of wing muscle tissue; experiment: Angiogenic assays in 2-week-old chicks (peptide deposited under the skin of the wing); type: in vivo, chick; details: 1 μg/10 μl under the skin of the wing on two consecutive days, four days after first dose
Description: Hematoxylin and eosin stained cross sections of wing muscle tissue showing organization of the muscle fibers. (A) Very few blood vessels (arrowheads) can be seen amongst the untreated muscle fibers. A large nerve bundle can be seen (black dot) associated with three small blood vessels. (B) Similar section taken from the wing of a bird that has been treated with the C-terminus peptide. Note the presence of numerous small blood vessels (arrowheads) amongst the muscle fibers. (C) Similar section from a bird treated with only buffer vehicle for the peptide. The number of blood vessels (arrowheads) is similar to that of the control. Scale bar=50 μm.
To further test the angiogenic potential of the C-terminal peptide, 1 μg of the peptide in 10 μl of water was deposited under the skin of the underside of the wing of 2-week-old chicks on two consecutive days, and the tissues prepared for histology on the fourth day.
The C-terminal peptide was deposited under the skin of the under wing of […] chicks using a procedure described previously [Martins-Green M, Boudreau N, Bissell M J (1994) Inflammation is responsible for the development of wound tumors in RSV-infected newly-hatched chicks. Cancer Res 54:4334-4341]. Two samples of 1 μg/10 μl each, were applied on two consecutive days followed by a waiting period of 3 days. […]

leukocytes = experiment: Chemotaxis for leukocytes and tissue changes in cross sections of treated CAMs; type: in vivo, chicken; details: for chemotaxis for leukocytes: 100 ng
Protocol: The cells inside the large blood vessel are erythrocytes (these chicken cells are nucleated). […] (C) Natural CAM showing sparse cells and a single blood vessel. Scale bars=100 μm.
as §1
Although the general structure of treated and untreated CAMs is the same, some differences were seen.

[3] = Time-dependent release of the 9E3 peptide from methylcellulose pellets; type: physicochemical; details: 300 ng 125I-labeled peptide in 0.5% methylcellulose pellet, PBS, 37° C.
Protocol: Samples of 280 μl of saline were removed periodically for scintillation counting and replaced by fresh saline. Error bars represent the standard deviation for 15 samples taken at each time point.
Methylcellulose pellets containing either form of the peptide at different concentrations were placed on mature CAMs [see Martins-Green M, Feugate J E (1998) The 9E3/CEF4 gene product is a chemotactic and angiogenic factor that can initiate the wound healing cascade in vivo. Cytokine 10:522-535]. Because the peptide is much smaller than cCAF itself, it is possible that release from the pellet might be much more rapid than for the entire molecule. Therefore, before performing the experiments on the CAM we determined the kinetics of release of the C-terminal peptide from pellets under reducing conditions for which the peptide will be a monomer and therefore of smallest size.
Five microliters of 0.5% methylcellulose (Fisher) containing 300 ng of ^125I-labeled 9E3 peptide were placed in the bottom of 15 Eppendorf tubes (0.5 ml), allowed to dry and then covered with 300 μl of sterile PBS containing 0.02% sodium azide and incubated at 37° C. […] The label released into the fluid was counted in a scintillation counter to determine if and over what period of time the peptide was released.

[4] = supernatant of normal cultures of CEFs; cited from earlier work
[5] = higher doses, 600-1000 ng/pellet
[6] = CAM cross sections two days after application of pellets

bFGF: Basic fibroblast growth factor, positive control in the CAM assay [reference compound]
percent of blood vessels oriented towards the pellet minus percent directed away ([1]; bFGF 500 ng): marked blood vessel orientation toward the pellet | percentage of CAMs showing reorientation and/or growth of blood vessels towards the pellet ([1]; positive control, 500 ng/pellet): 100% | percent of secondary vessels deviated toward the pellet ([1]; secondary vessels, bFGF 500 ng): over 90% | percent of tertiary vessels pointing in the direction of the pellet ([1]; tertiary vessels, bFGF 500 ng): less than 80%

C-terminal peptide: last 28 aas of the C-terminus of cCAF (residues 76 to 103 of SEQ ID NO:1), with cysteine No. 4 as N-terminal most aa (CLDPTAPWVQLIVKALMAKAQLNSDAPL; Gallusgallus)
number of new sprouts relative to CAMs treated with BSA ([1]; 1000 ng/pellet): about 10 times | blood vessel growth towards the pellet ([1]; 100-300 ng per pellet): stimulated the blood vessels to grow towards the pellet | tortuosity and sprouting effects after preincubation with antibody ([1]; 600-1000 ng/pellet, peptide preincubated with excess antibody directed against it): eliminated | percent of blood vessels oriented towards the pellet minus percent directed away ([1]; bFGF 500 ng): marked blood vessel orientation toward the pellet | reorientation of blood vessels [1, 5]: greatly decreased | sprouting of blood vessels [1, 5]: abundant sprouting | tortuosity of blood vessels [1, 5]: marked tortuosity | most effective doses (significant increase in angiogenic activity: tortuosity and sprouting) ([1]; localized administration in CAM assay): > 450 ng | percentage of CAMs showing reorientation and/or growth of blood vessels towards the pellet ([1]; non-reduced peptide): 94% | percentage of CAMs showing reorientation and/or growth of blood vessels towards the pellet ([1]; non-reduced peptide, listed as cCAF peptide): ~100% | angiogenesis / oriented blood vessel growth after preincubation with antibody [1]: the effect was eliminated | angiogenesis / oriented blood vessel growth after preincubation with antibody ([1]; listed as cCAF peptide): no angiogenesis was seen | percentage of CAMs showing reorientation and/or growth of blood vessels towards the pellet ([1]; peptide under reducing conditions): 96% | percentage of CAMs showing reorientation and/or growth of blood vessels towards the pellet ([1]; peptide under reducing conditions, listed as cCAF peptide): ~100% | most effective dose for oriented growth of secondary blood vessels ([1]; per pellet, secondary vessels): ~100 ng | most effective dose for oriented growth of tertiary blood vessels ([1]; per pellet, tertiary vessels): ~300 ng | small blood vessels in muscle tissue underlying the site of application versus vehicle and normal wing [2]: many more small blood vessels | hyperproliferation of the ectoderm of the CAM (leukocytes; [6]): slightly hyperproliferated | chemotaxis for leukocytes (leukocytes; [6]): no chemotaxis for leukocytes | leukocyte chemotaxis or granulation-like tissue formation (leukocytes; in vivo, CAM and chick wing): no evidence was found | duration of slow, prolonged release from the pellet [3]: up to 48 h | period in which the majority of the peptide was released from the pellet ([3]; reducing conditions (monomer)): ≤ 6 h

IL-8: interleukin 8, ELR-CXC chemokine (SEQ ID NO:3)
new sprouting of blood vessels of the CAM ([1]; 500 ng per pellet): extensive new sprouting

B1: cCAF: Chicken chemotactic and angiogenic factor, product of the 9E3 gene, 9 kDa CXC chemokine (SEQ ID NO:1) (protein)
chain: MNGKLGAVLALLLVSAALSQGRTLVKMGNELRCQCISTHSKFIHPKSIQDVKLTPSGPHCKNVEIIATLKDGREVCLDPTAPWVQLIVKALMAKAQLNSDAPL
modifications: Gallusgallus
new sprouting of blood vessels of the CAM ([1]; 450 ng per pellet): extensive new sprouting | period for which the 9 kDa form is stable [4]: 24 h | chemotaxis for leukocytes (leukocytes; [6]): chemotactic for monocyte/macrophages and lymphocytes
